# Laboratory results from ChEMBL document CHEMBL6083240, “Design, synthesis and biological evaluation of arylpropylamine derivatives as potential multi-target antidepressants” (Bioorg Med Chem, 2024).
# The source made the active and inactive calls. No cut-off for these calls is given here.
# Columns and labels:
# [1] = target: Sodium-dependent serotonin transporter (Rattus norvegicus) (UniProt P31652); assay: Agonist activity at rat cerebral cortex membrane SERT at 10 uM incubated for 10 mins in presence of [3H]5-HT relative to control; type: cell membranes
# Chain of Sodium-dependent serotonin transporter (Rattus norvegicus) (P31652 whole entry): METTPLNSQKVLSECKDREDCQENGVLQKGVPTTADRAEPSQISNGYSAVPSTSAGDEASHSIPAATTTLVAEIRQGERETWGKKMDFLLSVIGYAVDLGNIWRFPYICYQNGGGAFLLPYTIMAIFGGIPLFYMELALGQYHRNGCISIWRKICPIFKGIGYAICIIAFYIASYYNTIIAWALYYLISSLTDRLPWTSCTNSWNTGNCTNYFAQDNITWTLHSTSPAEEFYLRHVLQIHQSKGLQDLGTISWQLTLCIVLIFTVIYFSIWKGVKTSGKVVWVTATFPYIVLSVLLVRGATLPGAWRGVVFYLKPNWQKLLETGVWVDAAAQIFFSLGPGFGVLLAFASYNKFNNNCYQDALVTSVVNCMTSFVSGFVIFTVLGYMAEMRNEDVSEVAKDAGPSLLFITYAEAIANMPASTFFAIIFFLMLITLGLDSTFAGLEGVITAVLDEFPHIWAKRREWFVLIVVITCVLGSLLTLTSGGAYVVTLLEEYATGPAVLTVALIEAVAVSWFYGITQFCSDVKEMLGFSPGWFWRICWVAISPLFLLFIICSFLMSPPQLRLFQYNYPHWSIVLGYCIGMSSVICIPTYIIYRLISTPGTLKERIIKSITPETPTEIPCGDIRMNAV
# [2] = target: Sodium-dependent serotonin transporter (Rattus norvegicus, UniProt P31652); assay: Displacement of [3H]-paroxetine from SERT in rat cerebral cortex incubated for 10 mins by liquid scintillation counting method; type: tissue-based
# Chain of Sodium-dependent serotonin transporter (P31652 whole entry): as above
# [3] = target: T1, 5-hydroxytryptamine receptor 2C (Homo sapiens) (UniProt P28335); assay: Antagonist activity at 5-HT2C in HEK293 cells at 10 uM incubated for 60 mins by FLIPR assay relative to control; type: cell-based; set-up: scale not given: the % may be the effect or the level left; settings: filed as antagonist
# T1 sequence (whole entry): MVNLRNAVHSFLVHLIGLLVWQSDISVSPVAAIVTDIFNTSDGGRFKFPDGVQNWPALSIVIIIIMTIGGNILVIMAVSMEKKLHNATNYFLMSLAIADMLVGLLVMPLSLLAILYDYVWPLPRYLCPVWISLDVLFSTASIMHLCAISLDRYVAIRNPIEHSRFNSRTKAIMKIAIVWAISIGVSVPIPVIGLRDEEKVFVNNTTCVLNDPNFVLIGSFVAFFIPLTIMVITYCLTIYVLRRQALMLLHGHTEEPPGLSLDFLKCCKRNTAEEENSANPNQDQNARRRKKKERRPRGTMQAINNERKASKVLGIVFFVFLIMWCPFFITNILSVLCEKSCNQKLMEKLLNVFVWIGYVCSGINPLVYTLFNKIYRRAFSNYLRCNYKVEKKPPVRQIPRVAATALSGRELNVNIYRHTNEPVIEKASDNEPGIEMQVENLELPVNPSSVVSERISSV
# D(1A) dopamine receptor = D(1A) dopamine receptor (Homo sapiens, UniProt P21728); assay: Binding affinity to D1 receptor (unknown origin)
# [4] = Cmax in CD1 mouse at 15 mg/kg, po measured upto 24 hrs by LC-MS analysis; type: ADME, organism-based; settings: in vivo
# [5] = target: 5-hydroxytryptamine receptor 7 (Homo sapiens, UniProt P34969); assay: Binding affinity to 5-HT7 receptor (unknown origin)
# Chain of 5-hydroxytryptamine receptor 7 (P34969 whole entry): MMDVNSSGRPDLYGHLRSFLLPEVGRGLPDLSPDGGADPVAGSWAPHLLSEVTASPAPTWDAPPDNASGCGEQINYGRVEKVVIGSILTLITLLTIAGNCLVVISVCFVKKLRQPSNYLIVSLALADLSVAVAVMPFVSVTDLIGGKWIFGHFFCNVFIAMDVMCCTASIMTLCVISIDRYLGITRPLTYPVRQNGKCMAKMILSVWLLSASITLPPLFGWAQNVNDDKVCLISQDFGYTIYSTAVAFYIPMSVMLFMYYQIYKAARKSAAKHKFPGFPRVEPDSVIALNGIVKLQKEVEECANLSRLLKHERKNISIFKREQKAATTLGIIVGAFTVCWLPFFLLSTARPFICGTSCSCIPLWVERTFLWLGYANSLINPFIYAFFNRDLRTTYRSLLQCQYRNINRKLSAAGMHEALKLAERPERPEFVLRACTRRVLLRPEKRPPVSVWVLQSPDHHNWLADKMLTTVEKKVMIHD
# [6] = target: Muscarinic acetylcholine receptor M4 (Homo sapiens, UniProt P08173); assay: Binding affinity to M4 receptor (unknown origin)
# Chain of Muscarinic acetylcholine receptor M4 (P08173 whole entry): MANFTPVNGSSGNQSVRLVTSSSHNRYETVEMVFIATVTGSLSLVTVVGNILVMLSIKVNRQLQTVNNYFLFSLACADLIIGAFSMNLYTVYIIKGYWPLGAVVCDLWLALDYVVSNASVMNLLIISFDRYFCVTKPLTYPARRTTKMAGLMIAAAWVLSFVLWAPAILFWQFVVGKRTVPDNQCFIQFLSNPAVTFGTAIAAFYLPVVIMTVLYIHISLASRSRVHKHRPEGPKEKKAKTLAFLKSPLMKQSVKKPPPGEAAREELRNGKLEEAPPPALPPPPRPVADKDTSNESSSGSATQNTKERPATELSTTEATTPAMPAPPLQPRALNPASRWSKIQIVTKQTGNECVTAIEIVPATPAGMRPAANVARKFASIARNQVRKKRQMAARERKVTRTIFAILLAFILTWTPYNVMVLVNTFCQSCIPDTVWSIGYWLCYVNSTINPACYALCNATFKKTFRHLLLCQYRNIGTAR
# [7] = AUC(0 to infinity) in CD1 mouse at 2 mg/kg, iv measured upto 10 hrs by LC-MS analysis; type: ADME, organism-based; settings: in vivo
# [8] = target: Glutamate [NMDA] receptor; assay: Binding affinity to NMDA receptor (unknown origin); type: protein-complex assay, Homo sapiens
# [9] = target: Muscarinic acetylcholine receptor M1 (Homo sapiens, UniProt P11229); assay: Binding affinity to M1 receptor (unknown origin)
# [10] = target: Sigma intracellular receptor 2 (Homo sapiens, UniProt Q5BJF2); assay: Binding affinity to sigma 2 receptor (unknown origin)
# [11] = target: 5-hydroxytryptamine receptor 1A (Homo sapiens, UniProt P08908); assay: Binding affinity to 5-HT1A receptor (unknown origin)
# D(3) dopamine receptor = D(3) dopamine receptor (Homo sapiens, UniProt P35462); assay: Binding affinity to D3 receptor (unknown origin)
# Chain of D(3) dopamine receptor (P35462 whole entry): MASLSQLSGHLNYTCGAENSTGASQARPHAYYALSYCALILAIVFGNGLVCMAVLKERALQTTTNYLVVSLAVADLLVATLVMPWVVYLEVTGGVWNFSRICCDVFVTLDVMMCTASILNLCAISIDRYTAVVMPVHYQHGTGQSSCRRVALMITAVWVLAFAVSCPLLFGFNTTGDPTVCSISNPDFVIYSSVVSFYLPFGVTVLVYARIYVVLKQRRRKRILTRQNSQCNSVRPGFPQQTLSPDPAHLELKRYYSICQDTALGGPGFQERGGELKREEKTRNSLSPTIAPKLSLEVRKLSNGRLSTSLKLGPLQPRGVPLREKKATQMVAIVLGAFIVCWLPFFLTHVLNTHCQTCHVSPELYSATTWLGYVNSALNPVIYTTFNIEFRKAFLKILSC
# [12] = target: 5-hydroxytryptamine receptor 2C (Homo sapiens, UniProt P28335); assay: Antagonist activity at 5-HT2C in HEK293 cells incubated for 60 mins by FLIPR assay; type: cell-based
# [13] = Oral bioavailability in CD1 mouse at 15 mg/kg measured upto 24 hrs by LC-MS analysis; type: ADME, organism-based; settings: in vivo
# Histamine H3 receptor = Histamine H3 receptor (Homo sapiens, UniProt Q9Y5N1); assay: Binding affinity to H3 receptor (unknown origin)
# [14] = target: Alpha-2A adrenergic receptor (Homo sapiens, UniProt P08913); assay: Binding affinity to alpha-2 adrenergic receptor (unknown origin)
# Chain of Alpha-2A adrenergic receptor (P08913 whole entry): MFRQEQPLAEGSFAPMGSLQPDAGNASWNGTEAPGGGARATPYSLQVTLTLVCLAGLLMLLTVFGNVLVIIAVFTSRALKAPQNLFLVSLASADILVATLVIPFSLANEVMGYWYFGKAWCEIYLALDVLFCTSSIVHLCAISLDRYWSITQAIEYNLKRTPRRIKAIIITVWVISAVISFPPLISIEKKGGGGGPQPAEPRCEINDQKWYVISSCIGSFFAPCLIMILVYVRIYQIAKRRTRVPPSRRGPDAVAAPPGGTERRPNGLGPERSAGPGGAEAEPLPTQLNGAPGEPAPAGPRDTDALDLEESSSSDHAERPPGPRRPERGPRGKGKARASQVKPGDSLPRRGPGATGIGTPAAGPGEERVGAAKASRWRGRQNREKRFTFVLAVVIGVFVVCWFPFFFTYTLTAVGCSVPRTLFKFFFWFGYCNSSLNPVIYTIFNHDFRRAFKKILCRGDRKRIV
# [15] = target: T2, 5-hydroxytryptamine receptor 2A (Homo sapiens, UniProt P28223); assay: Antagonist activity at 5-HT2A in HEK293 cells at 10 uM incubated for 60 mins by FLIPR assay relative to control; type: cell-based; set-up: scale not given: the % may be the effect or the level left; settings: filed as antagonist
# T2 sequence (P28223 whole entry): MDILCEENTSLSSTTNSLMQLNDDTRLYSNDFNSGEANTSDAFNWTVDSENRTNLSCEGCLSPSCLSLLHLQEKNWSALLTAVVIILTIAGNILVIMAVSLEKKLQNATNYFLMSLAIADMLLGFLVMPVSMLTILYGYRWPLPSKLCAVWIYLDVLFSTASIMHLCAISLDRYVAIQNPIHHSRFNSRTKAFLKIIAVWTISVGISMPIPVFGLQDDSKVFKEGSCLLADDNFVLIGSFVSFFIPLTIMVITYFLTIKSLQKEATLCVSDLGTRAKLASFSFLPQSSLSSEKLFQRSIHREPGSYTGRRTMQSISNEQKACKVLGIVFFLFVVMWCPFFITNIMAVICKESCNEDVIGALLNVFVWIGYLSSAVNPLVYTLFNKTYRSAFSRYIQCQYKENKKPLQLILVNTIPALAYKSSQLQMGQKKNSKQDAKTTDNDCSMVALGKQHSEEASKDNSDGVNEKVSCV
# [16] = target: T3, 5-hydroxytryptamine receptor 2C (Rattus norvegicus, UniProt P08909); assay: Displacement of [3H]-mesulergine from 5-HT2C in rat cerebral cortex incubated for 15 mins by liquid scintillation counting method; type: tissue-based
# T3 sequence (P08909 whole entry): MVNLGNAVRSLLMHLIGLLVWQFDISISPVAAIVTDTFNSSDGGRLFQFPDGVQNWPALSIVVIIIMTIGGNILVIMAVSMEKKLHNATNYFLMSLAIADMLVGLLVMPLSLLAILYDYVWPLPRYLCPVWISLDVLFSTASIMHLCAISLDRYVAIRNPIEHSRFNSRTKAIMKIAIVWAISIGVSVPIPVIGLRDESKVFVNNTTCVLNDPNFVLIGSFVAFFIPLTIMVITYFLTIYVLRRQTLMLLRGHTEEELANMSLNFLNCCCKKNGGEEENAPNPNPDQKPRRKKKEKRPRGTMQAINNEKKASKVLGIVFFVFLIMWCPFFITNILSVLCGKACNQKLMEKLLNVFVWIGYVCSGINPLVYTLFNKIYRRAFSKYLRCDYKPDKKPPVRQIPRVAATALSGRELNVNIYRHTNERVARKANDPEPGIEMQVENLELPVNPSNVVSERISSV
# D(2) dopamine receptor = D(2) dopamine receptor (Homo sapiens, UniProt P14416); assay: Binding affinity to D2 receptor (unknown origin)
# Mus musculus = assay: Antidepressant activity in Kunming mouse chronic unpredictable mild stress model assessed as increase in sucrose preference at 0.5 to 6 mg/kg, IG measured after 1 week; type: functional, organism-based; settings: dose 0.5-6 mg/kg, time 1.0 weeks
# [17] = Tmax in CD1 mouse at 15 mg/kg, po measured upto 24 hrs by LC-MS analysis; type: ADME, organism-based; settings: in vivo
# [18] = AUC(0 to t) in CD1 mouse at 2 mg/kg, iv measured upto 10 hrs by LC-MS analysis; type: ADME, organism-based; settings: in vivo
# [19] = target: 5-hydroxytryptamine receptor 6 (Homo sapiens, UniProt P50406); assay: Binding affinity to 5-HT6 receptor (unknown origin)
# Chain of 5-hydroxytryptamine receptor 6 (P50406 whole entry): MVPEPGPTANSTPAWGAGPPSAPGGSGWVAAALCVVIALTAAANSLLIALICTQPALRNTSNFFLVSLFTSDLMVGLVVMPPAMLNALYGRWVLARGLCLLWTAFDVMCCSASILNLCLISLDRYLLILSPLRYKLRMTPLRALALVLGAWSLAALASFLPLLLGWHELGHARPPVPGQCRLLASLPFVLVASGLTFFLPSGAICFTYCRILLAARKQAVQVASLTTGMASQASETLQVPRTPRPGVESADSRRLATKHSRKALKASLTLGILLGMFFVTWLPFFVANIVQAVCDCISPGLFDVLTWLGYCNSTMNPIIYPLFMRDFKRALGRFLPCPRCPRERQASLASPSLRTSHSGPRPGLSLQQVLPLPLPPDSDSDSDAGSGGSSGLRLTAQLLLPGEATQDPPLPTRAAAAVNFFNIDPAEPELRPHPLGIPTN
# [20] = target: Transporter (Rattus norvegicus) (UniProt Q63380); assay: Agonist activity at rat cerebral cortex membrane NET at 10 uM incubated for 10 mins in presence of [3H]-NE relative to control; type: cell membranes
# [21] = target: Muscarinic acetylcholine receptor M3 (Homo sapiens, UniProt P20309); assay: Binding affinity to M3 receptor (unknown origin)
# Chain of Muscarinic acetylcholine receptor M3 (P20309 whole entry): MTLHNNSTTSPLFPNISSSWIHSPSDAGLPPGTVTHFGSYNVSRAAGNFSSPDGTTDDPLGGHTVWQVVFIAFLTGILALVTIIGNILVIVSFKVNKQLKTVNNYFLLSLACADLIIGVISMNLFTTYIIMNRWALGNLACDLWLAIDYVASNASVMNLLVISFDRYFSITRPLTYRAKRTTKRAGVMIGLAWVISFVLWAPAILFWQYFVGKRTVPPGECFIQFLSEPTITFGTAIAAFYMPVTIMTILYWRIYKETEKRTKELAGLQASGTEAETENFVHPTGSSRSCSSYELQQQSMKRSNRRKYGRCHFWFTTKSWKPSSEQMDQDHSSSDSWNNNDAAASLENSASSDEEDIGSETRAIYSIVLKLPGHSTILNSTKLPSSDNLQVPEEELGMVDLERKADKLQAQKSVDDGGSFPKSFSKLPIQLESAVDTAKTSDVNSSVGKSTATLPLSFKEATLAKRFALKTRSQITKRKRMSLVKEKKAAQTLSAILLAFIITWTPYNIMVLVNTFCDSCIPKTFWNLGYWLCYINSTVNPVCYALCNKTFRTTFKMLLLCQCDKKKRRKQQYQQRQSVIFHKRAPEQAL
# Histamine H4 receptor = Histamine H4 receptor (Homo sapiens, UniProt Q9H3N8); assay: Binding affinity to H4 receptor (unknown origin)
# Chain of Histamine H4 receptor (Q9H3N8 whole entry): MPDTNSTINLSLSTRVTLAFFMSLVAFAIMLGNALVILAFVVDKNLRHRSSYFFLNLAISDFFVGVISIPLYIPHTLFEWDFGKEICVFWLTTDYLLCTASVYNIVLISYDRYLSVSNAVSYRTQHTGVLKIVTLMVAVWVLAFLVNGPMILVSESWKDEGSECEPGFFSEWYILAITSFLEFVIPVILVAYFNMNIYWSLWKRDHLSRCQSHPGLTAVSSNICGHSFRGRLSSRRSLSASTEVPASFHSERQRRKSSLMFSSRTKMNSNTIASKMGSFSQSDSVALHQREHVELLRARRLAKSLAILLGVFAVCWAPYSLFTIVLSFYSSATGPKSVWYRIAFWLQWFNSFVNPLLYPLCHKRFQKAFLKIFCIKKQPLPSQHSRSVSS
# [22] = target: T2, 5-hydroxytryptamine receptor 2A; assay: Agonist activity at 5-HT2A in HEK293 cells at 10 uM incubated for 60 mins by FLIPR assay relative to control; type: functional, cell-based; settings: filed as agonist
# [23] = AUC(0 to t) in CD1 mouse at 15 mg/kg, po measured upto 24 hrs by LC-MS analysis; type: ADME, organism-based; settings: in vivo
# [24] = target: Sodium-dependent dopamine transporter (Homo sapiens, UniProt Q01959); assay: Binding affinity to DAT (unknown origin)
# Transporter = Transporter (Rattus norvegicus, UniProt Q63380); assay: Antagonist activity at rat cerebral cortex membrane NET incubated for 10 mins in presence of [3H]-NE; type: cell membranes
# [25] = MRTlast in CD1 mouse at 15 mg/kg, po measured upto 24 hrs by LC-MS analysis; type: ADME, organism-based; settings: in vivo
structure (smiles),measurement,setting,value
CN(C)CC[C@@H](Oc1cccc2c1OCO2)c1ccc(F)cc1.O=C(O)C(=O)O,Activity,[1],2.2%
same,Ki,[2],5.8 nM
same,Activity,[3],99.1%
same,Ki,D(1A) dopamine receptor,> 1000 nM
same,Cmax,[4],144 ng/mL
same,Ki,[5],> 1000 nM
same,Ki,[6],> 1000 nM
same,AUC(0-inf),[7],310 ng·h/mL
same,Ki,[8],> 1000 nM
same,Ki,[9],640 nM
same,Ki,[10],> 1000 nM
same,Ki,[11],> 1000 nM
same,Ki,D(3) dopamine receptor,> 1000 nM
same,IC50,[12],87.5 nM
same,bioavailability,[13],20.3%
same,Ki,Histamine H3 receptor,> 1000 nM
same,Ki,[14],> 1000 nM
same,Activity,[15],100%
same,Ki,[16],15.7 nM
same,Ki,D(2) dopamine receptor,> 1000 nM
same,Activity,Mus musculus,inactive
same,Tmax,[17],0.5 h
same,AUC(0-t) at 10 h,[18],304 ng·h/mL
same,Ki,[19],> 1000 nM
same,Activity,[20],5.6%
same,Ki,[21],> 1000 nM
same,Ki,Histamine H4 receptor,> 1000 nM
same,Activity,[22],103%
same,AUC(0-t) at 24 h,[23],462 ng·h/mL
same,Ki,[24],> 1000 nM
same,IC50,Transporter,87 nM
same,MRT last at 24 h,[25],3.1 h
